Article PMC12434071, “Platinum-group metal half-sandwich complexes of 1-(α-D-glucopyranosyl)-4-hetaryl-1,2,3-triazoles: synthesis, solution equilibrium studies, and investigation of their anticancer and antimicrobial activities” (Frontiers in Chemistry, 2025)

Tests used:
A2780 cells = test: SRB assay on A2780 cells; assay type: cell-based; conditions: maximal inhibition; 48 h treatment; maximum concentration 100 µM
Protocol: For MTT assays, 4 × 10^3 A2780 cells were plated into 96-well plates, and for SRB assays, 1.5 × 10^3 A2780 cells were plated into 96-well plates. Cells were treated with the compounds in the concentrations indicated for either 4 h for an MTT assay or for 48 h for an SRB assay. Data are represented as average ± SD, from four biological replicates, with the exception of the MTT dataset of Ir-2b and the SRB datasets of 2b, Ru/Ir-2b, and Ir-3a, which were derived from three biological replicates. Individual assays were performed in duplicate. Values were normalized for vehicle-treated cells, and the absorbance for vehicle-treated cells equals 1. Data are represented as fold change compared to vehicle-treated controls. Normality was assessed using the D’Agostino–Pearson test. Statistical significance was assessed using a two-way ANOVA test followed by Tukey’s post hoc test. For better visibility, normality, transformations, statistical tests, and p values are presented in an MS Excel sheet at https://figshare.com/s/3a0aa60b66f3f746f41e. Color code: black—free ligand (2a,b or 3a), khaki—ruthenium complex (Ru-2a,b or Ru-3a), green—iridium complex (Ir-2a,b or Ir-3a).  FIGURE 7 The ruthenium, osmium, and iridium complexes of ligands 4a, 4b, and 5a are cytostatic on ovarian cancer models with a good therapeutic index. For SRB assays, 1.5 × 10^3 A2780 cells, 1.5 × 10^3 ID8 cells, or 4 × 10^3 primary fibroblasts were plated into 96-well plates. Cells were treated with the compounds in the concentrations indicated for 48 h. Data are represented as average ± SD, from four biological replicates on A2780 and human primary fibroblasts, except in the case of Os complexes, where experiments were performed in three biological replicates. ID8 cells were assessed in three biological replicates. Individual assays were performed in duplicate. Values were normalized for vehicle-treated cells, and the absorbance for vehicle-treated cells equals 1. Normality was assessed using the D’Agostino–Pearson test. Statistical significance was assessed using a two-way ANOVA test followed by Tukey’s post hoc test. For better visibility, normality, transformations, statistical tests, and p values are presented in an MS Excel sheet at https://figshare.com/s/3a0aa60b66f3f746f41e. Color code: black—free ligand (4a,b or 5a), khaki—ruthenium complex (Ru-4a,b), blue—osmium complex (Os-4a,b or Os-5a), green—iridium complex (Ir-4a,b), and red—rhodium complex (Rh-4a,b). An SRB assay measures protein content of cells in correlation with the cell number in an assay well and can therefore be used to assess cell proliferation or long-term cytostasis ([Skehan et al., 1990]). Cells were seeded into 96-well plates the day before the treatment for the assay. Cells were treated with the various compounds for 48 h. Then, the medium was removed, and cells were fixed with 10% trichloroacetic acid. Fixed cells were washed in distilled water three times, followed by staining with SRB (0.4 m/V% dissolved in 1% acetic acid) for 10 min. Stained cells were washed in 1% acetic acid five times; the acetic acid was removed, and the cells were left to dry. Protein-bound SRB was released by adding 100 µL of 10 mM Tris base. Plates were measured in a plate photometer (Thermo Scientific Multiscan GO spectrophotometer, Waltham, MA, United States) at 540 nm. Certain wells were designated to contain vehicle-treated cells on each plate. […] Statistical analysis was performed using version 8.0.1 of GraphPad Prism. Values were tested for normal distribution using the D’Agostino–Pearson or Shapiro–Wilk normality tests. When necessary, values were log-normalized or normalized using the Box–Cox or two-step normalization method ([Box and Cox, 1964]), as indicated in the MS Excel file listing the values at https://figshare.com/s/3a0aa60b66f3f746f41e. […]

[1] = system: human primary dermal fibroblasts; test: MTT reduction assay on human primary dermal fibroblasts; assay type: cell-based; conditions: maximal inhibition; 4 h treatment; maximum concentration 100 µM
Protocol: FIGURE 5 The ruthenium, osmium, and iridium complexes of ligands 4a, 4b, and 5a decrease MTT reduction. For MTT assays, 4 × 10^3 A2780 cells, 3 × 10^3 ID8 cells, or 6 × 10^3 human primary fibroblasts were plated into 96-well plates. Cells were treated with the compounds in the concentrations indicated for 4 h. Data are represented as average ± SD, from four biological replicates on A2780, and from three biological replicates on ID8 and human primary fibroblasts. For the datasets of 5a and Os-5a on human primary fibroblasts, the data represent four biological replicates. Individual assays were performed in duplicate. Values were normalized for vehicle-treated cells, and the absorbance for vehicle-treated cells equals 1. Normality was assessed using the D'Agostino-Pearson test. Statistical significance was assessed using a two-way ANOVA test followed by Tukey's post hoc test. For better visibility, normality, transformations, statistical tests, and p values are presented in an MS Excel sheet at https://figshare.com/s/3a0aa60b66f3f746f41e. Color code: black-free ligand (4a,b or 5a), khaki-ruthenium complex (Ru-4a,b), green-iridium complex (Ir-4a,b), blue-osmium complex (Os-4a,b or Os-5a), and red-rhodium complex (Rh-4a,b). An MTT reduction assay measures the activity of mitochondrial complex I and can be used to detect toxicity ([[…] et al., 2016]). The assay was performed in a manner similar to that described by [[…] et al. (2023b)]. Briefly, cells were plated into 96-well plates the day before the assay. Cells were treated with the compounds for 4 h; then, MTT was added to a 0.5 mg/mL final concentration, and cells were incubated at 37°C in a cell incubator for 40-60 min, as a function of the cell line being assessed. The culture medium was removed, the reduced MTT dye was dissolved in dimethylsulfoxide, and plates were measured in a plate photometer (Thermo Scientific Multiscan GO spectrophotometer, Waltham, MA, United States) at 540 nm. […] In calculations, the readings for these wells were considered to 1, and all readings were expressed relative to these values. […]

SMILES | A2780 SRB max % (A2780 cells) | Fibroblast MTT max % [1]
O=C(OC[C@H]1O[C@H](n2cc(-c3ccccn3)nn2)[C@H](OC(=O)c2ccccc2)[C@@H](OC(=O)c2ccccc2)[C@@H]1OC(=O)c1ccccc1)c1ccccc1 [Complex 4a, 1-(2’,3’,4’,6’-Tetra-O-benzoyl-α-D-glucopyranosyl)-4-(pyridin-2-yl)-1,2,3-triazole] | 29.51% | 0%
CCCCC(=O)OC[C@H]1O[C@H](n2cc(-c3ccccn3)nn2)[C@H](OC(=O)CCCC)[C@@H](OC(=O)CCCC)[C@@H]1OC(=O)CCCC [Complex 5a, 1-(2’,3’,4’,6’-Tetra-O-pentanoyl-α-D-glucopyranosyl)-4-(pyridin-2-yl)-1,2,3-triazole] | 33.92% | 15.72%
OC[C@H]1O[C@H](n2cc(-c3ccccn3)nn2)[C@H](O)[C@@H](O)[C@@H]1O [Complex 3a, 1-(α-D-Glucopyranosyl)-4-(pyridin-2-yl)-1,2,3-triazole] | 0% | –
O=C(OC[C@H]1O[C@H](n2cc(-c3ccc4ccccc4n3)nn2)[C@H](OC(=O)c2ccccc2)[C@@H](OC(=O)c2ccccc2)[C@@H]1OC(=O)c1ccccc1)c1ccccc1 [Complex 4b, 1-(2’,3’,4’,6’-Tetra-O-benzoyl-α-D-glucopyranosyl)-4-(quinolin-2-yl)-1,2,3-triazole] | 0% | 0%
